Experimental data taken from USRE48267E1, “Variants of C-type natriuretic peptide” (priority 2009, dated 2020).
Where a SMILES comes first, the peptide text is derived from it. Bridges are numbered along the chain shown (N, C = ends). The star is where a group is joined. MeO(CH2CH2O)23CH2CH2CO = COCCOCCOCCOCCOCCOCCOCCOCCOCCOCCOCCOCCOCCOCCOCCOCCOCCOCCOCCOCCOCCOCCOCCOCCC(=O)*

How the values were obtained:
[1] = target: Recombinant human NEP (Homo sapiens, UniProt P08473); assay: in vitro NEP cleavage assay (disappearance of non-cleaved CNP variant)
Recombinant human NEP, sequence (P08473 whole entry): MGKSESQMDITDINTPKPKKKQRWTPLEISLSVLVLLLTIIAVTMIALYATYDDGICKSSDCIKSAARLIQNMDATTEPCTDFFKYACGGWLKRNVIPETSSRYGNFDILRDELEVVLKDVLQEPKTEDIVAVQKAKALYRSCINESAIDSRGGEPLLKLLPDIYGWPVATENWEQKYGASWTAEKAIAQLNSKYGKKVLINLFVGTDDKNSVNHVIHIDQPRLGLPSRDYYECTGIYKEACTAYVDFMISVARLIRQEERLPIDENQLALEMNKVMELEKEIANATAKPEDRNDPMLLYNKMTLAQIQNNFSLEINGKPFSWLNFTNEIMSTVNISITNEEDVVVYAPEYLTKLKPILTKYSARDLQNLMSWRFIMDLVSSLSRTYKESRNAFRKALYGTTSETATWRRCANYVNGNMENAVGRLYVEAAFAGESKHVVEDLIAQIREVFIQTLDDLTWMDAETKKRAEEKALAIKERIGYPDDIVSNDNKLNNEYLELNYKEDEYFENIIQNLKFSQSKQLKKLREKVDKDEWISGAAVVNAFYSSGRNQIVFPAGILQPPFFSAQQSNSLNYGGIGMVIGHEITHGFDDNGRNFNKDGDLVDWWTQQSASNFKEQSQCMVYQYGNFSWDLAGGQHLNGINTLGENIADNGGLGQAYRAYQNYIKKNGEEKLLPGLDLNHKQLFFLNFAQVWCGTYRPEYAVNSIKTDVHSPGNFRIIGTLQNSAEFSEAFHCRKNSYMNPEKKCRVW
How it was run: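 Recombinant human NEP (1 ug/mL final) incubated with 100 uM CNP variant in 0.1 M Tris, pH 7, at 37° C for various times, then quenched with EDTA (10 mM final) and heat. Samples reduced and analysed by HPLC and mass spectrometry. Half-life derived from loss of intact variant over time.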

[2] = test system: wild-type mouse femurs and tibias; assay: mouse organ culture model of endochondral bone growth, wild-type bones; details: for longitudinal growth of wild-type mouse femur ex vivo: 8 days
Experimental: To determine the efficacy of CNP variants in stimulating longitudinal bone growth, CNP variants were tested in a mouse organ culture model of endochondral bone growth in wild-type mice and transgenic mice having a G380R mutation in the human FGFR-3 gene (FGFR3^wt/Ach heterozygote) which represent a mouse model of mild achondroplasia. In brief, the pharmacological activity of wild-type CNP22 and CNP variants was compared in an organ culture model of embryonic or neonatal mouse tibiae, isolated from wild-type and FGFR3^wt/Ach littermates. Overall bone growth and histological changes within the growth plate were assessed. Conditioned culture medium is also assessed for biomarkers of intracellular signaling (cGMP), cartilage metabolism (type II collagen, other collagens, aggrecan chondroitin sulfate), bone metabolism (bone alkaline phosphatase, osteocalcin, type I collagen [C-telopeptide, N-telopeptide]), and inflammation (interleukin-1, interleukin 6, interleukin-11).
The efficacy of wtCNP22, CNP37 and PEO24-[…]22(K4R) (SEQ ID NO: 36) in stimulating longitudinal femoral growth was evaluated in the mouse organ culture model. For these experiments femora were isolated from 2-3 day old wild-type mice and cultured in alphaMEM supplemented with 0.2% BSA, 0.5 mM L-glutamine, 40 units penicillin/mL and 40 ug streptomycin/mL, for 8 days in the presence of vehicle, CNP22 or CNP variants. The treatment commenced at day 0 and was repeated every two days thereafter, as the medium was changed. Bones were measured prior to treatment and every two days thereafter, using a dissection microscope fitted with a 1 cm eye-piece reticule. Conditioned medium was used for biomarker analysis. At day 8 bones were fixed in 4% paraformaldehyde for 24 hr, decalcified in 5% formic acid for 24 hrs, dehydrated and embedded in paraffin. Bones were sectioned at 5 um (microns), which were then deparaffinized, rehydrated, and stained with Alcian Blue for 30 min (pH 2.5; MasterTech). Alcian Blue stains cartilage blue. Stained sections were visualized and photographed by brightfield microscopy. The thickness of the hypertrophic region of the growth plate cartilage was determined by image analysis.
In addition to the distribution of CNP variants in the bone growth plate, the ex vivo effects of CNP37, CNP22 and vehicle on cells in the FGFR3^ach and wild-type growth plate, e.g., hypertrophic cell size and cellularity of proliferating zone, were also evaluated. Bone samples were prepared, including Alcian Blue staining, as described above. Images of the entire proximal growth plate were taken at 4× magnitude. The growth plate is divided into three zones, starting from the epiphyseal side of cartilage: the resting zone (individual small chondrocytes), proliferating zone (columns of stacked chondrocytes parallel to the long axis of the bone), and hypertrophic zone (large chondrocytes and thin septa between the chondrocytes). In these regions, measurements were made by ImageJ software, including the number of proliferating chondrocytes per column and the density of hypertrophic chondrocytes. […] The cell size of hypertrophic chondrocytes was calculated by 1 over determined cell density. […]
Femurs and tibias were isolated from wild-type and FGFR3^ach mice as described above. […] On the eighth day, media was collected and analyzed for the biomarkers cGMP (cyclic guanosine 3′, 5′ cyclic monophosphate) and fragments of cleaved collagen type II, a cartilage-specific marker for cartilage turnover. […]

With `CC[C@H](C)[C@@H]1NC(=O)[C@H](CCCNC(=N)N)NC(=O)[C@H](CC(=O)O)NC(=O)[C@H](CC(C)C)NC(=O)[C@H](CCCCN)NC(=O)[C@H](CC(C)C)NC(=O)CNC(=O)[C@H](Cc2ccccc2)NC(=O)[C@@H](NC(=O)CNC(=O)[C@H](CCCNC(=N)N)NC(=O)[C@H](CO)NC(=O)[C@H](CC(C)C)NC(=O)CNC(=O)[C@H](CCCNC(=N)N)NC(=O)[C@H](CCCNC(=N)N)NC(=O)[C@H](CC(N)=O)NC(=O)[C@H](C)NC(=O)CNC(=O)CCOCCOCCOCCOCCOCCOCCOCCOCCOCCOCCOCCOCCOCCOCCOCCOCCOCCOCCOCCOCCOCCOCCOCCOC)CSSC[C@@H](C(=O)O)NC(=O)CNC(=O)[C@H](CC(C)C)NC(=O)CNC(=O)[C@H](CO)NC(=O)[C@H](CCSC)NC(=O)[C@H](CO)NC(=O)CNC1=O` [PEO24-GANRR-CNP22(K4R)] ({MeO(CH2CH2O)23CH2CH2CO}-GANRRGLSRGCFGLKLDRIGSMSGLGC-OH; disulfide 11-27) the “resistance to NEP cleavage (in words)” value [1] was “completely resistant to NEP cleavage over the assay period of 160 minutes”, the “cGMP levels in conditioned media” value ([2]; ex-planted wild-type mouse femurs and tibias, day 8) was “large increase (p<0.01)” and the “longitudinal growth of wild-type mouse tibia ex vivo” value ([2]; treated every two days) was “increased the longitudinal growth of the tibia compared to vehicle or CNP22”. For the same compound, the “longitudinal growth of wild-type mouse femur ex vivo” value ([2]; treated every two days) was “the most effective”, the “longitudinal growth of wild-type mouse femur ex vivo” value ([2]; treated every two days, listed as PE024-GANRR-CNP22(K4R)) was “stimulated the growth of wild-type mouse femur” and the “levels of cleaved collagen type II in conditioned media” value ([2]; wild-type mouse femurs) was “increased”.
